Reference: publication PMC4368888, “Preclinical to Clinical Translation of CNS Transporter Occupancy of TD-9855, a Novel Norepinephrine and Serotonin Reuptake Inhibitor” (International Journal of Neuropsychopharmacology, 2015)
“And” between values parts separate entries of the source, which are not always exact repeats. Identical values can stand only once.

Target: NET (Homo sapiens, UniProt P23975)
Experiment: Human PET NET occupancy with [11C]-MRB
Type: in vivo
Set-up: from tissue; host or cells: brain of healthy male volunteers, in vivo PET
Description: This was a Phase 1, open-label, single-dose study in healthy male volunteers to evaluate NET and SERT occupancy in the human brain after oral administration of TD-9855 using PET.
The study was conducted at the Yale PET Center in accordance with the principles of the International Conference on Harmonisation’s Technical Requirements for Registration of Pharmaceuticals for Human Use Guideline for Good Clinical Practice. The protocol was approved by the Yale University Human Investigation Committee and the Yale–New Haven Hospital Radiation Safety Committee. SERT and NET occupancy were determined using the selective radiotracers [^11C]-DASB ([Meyer et al., 2004]; [Takano et al., 2006]; [Abanades et al., 2011]; [Nogami et al., 2013]) and [^11C]-MRB. Selection of the radiotracers and the dose of TD-9855 were flexible to minimize the number of PET scans.
Eligible subjects were enrolled and received either [^11C]-MRB and/or [^11C]-DASB. Each subject underwent up to 5 PET scans over a period of up to 8 days. Multiple dose levels of TD-9855 (up to 20mg) were explored. All randomized subjects received the NET tracer (single-tracer evaluation) and some subjects (n = 3) received both the NET and SERT tracers sequentially (dual-tracer evaluation) in the baseline and post-dose period. […] In the dual-tracer evaluation, subjects completed sequential [^11C]-DASB and [^11C]-MRB baseline scans with each tracer, sequential post-dose scans with each tracer at 7–10hr post-dose, and one follow-up scan with [^11C]-MRB on or between Days 3 and 7.
The injected dose of both tracers was typically 14–15 mCi, with mass doses less than 10 µg in all cases. PET images were acquired using the High Resolution Research Tomograph (HRRT; Siemens/CTI) with a reconstructed image resolution of approximately 3mm. Following a transmission scan, [^11C]-MRB or [^11C]-DASB was injected intravenously as a 1min bolus by an infusion pump. List-mode data were acquired for 120min. Head motion correction was performed using an optical tracking tool (Vicra, NDI Systems) and a rigid tool attached to a swim cap.
The occipital cortex was selected as the reference region for [^11C]-MRB due to the low density of NET measured in vitro ([Schou et al., 2005]) and the absence of specific binding in a previous study ([Hannestad et al., 2010]). The regions of interest (ROIs) selected to assess [^11C]-MRB specific binding included one cortical region and the paracentral lobule, thalamus, hypothalamus, locus ceruleus, nucleus rubra, and raphe nucleus. The thalamus and cortical ROIs were delineated using the Automated Anatomical Labeling (AAL) template ([Tzourio-Mazoyer et al., 2002]). The hypothalamus, locus ceruleus, nucleus rubra, and raphe nucleus ROIs were drawn on the template MR image, based on the AAL template ([Hannestad et al., 2010]).
For both studies, binding potentials (BP ND) were estimated using a method based on a reference region input curve. For [^11C]-MRB regional BP ND were computed using the multilinear reference tissue model 2 (MRTM2; [Ichise et al., 2003]). The suitability of MRTM2 to estimate [^11C]-MRB BP ND values was evaluated in a previous study ([Hannestad et al., 2010]), in which it was shown that MRTM2 BP ND estimates are highly correlated with BP ND estimated with arterial blood sampling and the multilinear analysis 1 (y = 0.909 x + 0.078, r^2 = 0.821, where x represents the MA1 BP ND values and y represents the MRTM2 BP ND values). BP ND values and their associated standard errors ( SEBPND ) for each ROI were then estimated by performing fits of the regional TACs. Data were fitted starting at time t* = 20min. For [^11C]-DASB, regional BP ND values were computed using simplified reference tissue model 2 (SRTM2; [Wu and Carson, 2002]). SRTM2 is similar to MRTM2, except that it uses the full data set, while MRTM2 uses the period of time t > t*. When applied to single-voxel TACs, these fits provided the BP ND images. […]

[1] = 4 mg single oral dose, individual subjects, rApp ± SE
[2] = 10 mg single oral dose, individual subject, rApp ± SE
[3] = 20 mg single oral dose, individual subject, rApp ± SE
[4] = 20 mg single oral dose, individual subjects, rApp ± SE

Chain of NET (P23975 whole entry): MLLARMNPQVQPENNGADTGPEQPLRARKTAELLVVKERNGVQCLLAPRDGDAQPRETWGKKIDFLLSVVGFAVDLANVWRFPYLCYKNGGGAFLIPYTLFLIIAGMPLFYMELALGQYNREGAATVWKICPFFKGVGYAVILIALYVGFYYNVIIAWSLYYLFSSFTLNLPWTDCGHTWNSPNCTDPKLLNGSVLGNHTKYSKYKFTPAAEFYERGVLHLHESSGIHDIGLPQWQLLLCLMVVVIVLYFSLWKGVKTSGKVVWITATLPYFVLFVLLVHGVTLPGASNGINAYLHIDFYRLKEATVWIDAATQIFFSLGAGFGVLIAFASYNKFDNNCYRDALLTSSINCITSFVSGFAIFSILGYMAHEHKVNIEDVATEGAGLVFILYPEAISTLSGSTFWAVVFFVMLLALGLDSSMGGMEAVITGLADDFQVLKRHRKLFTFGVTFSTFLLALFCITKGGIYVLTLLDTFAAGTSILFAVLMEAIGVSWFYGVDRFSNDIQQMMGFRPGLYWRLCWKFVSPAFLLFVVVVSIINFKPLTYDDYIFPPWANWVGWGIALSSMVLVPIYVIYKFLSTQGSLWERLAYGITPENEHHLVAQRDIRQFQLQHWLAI

Fc1cc(F)c(OCc2ccccc2C2CCNCC2)c(F)c1 [TD-9855, 4-[2-(2,4,6-trifluorophenoxymethyl)phenyl]piperidine]
Apparent NET Occupancy Day 7 (4 mg single oral dose, individual subject, rApp ± SE): 3.2±7.8%
Apparent NET Occupancy Day 1 [1]: 57.9±4.7% and 58.7±5.5% and 42.2±6.4%
Apparent NET Occupancy Day 3 [1]: 57.3±3.8% and 47.2±6.0% and 29.6±7.1%
Apparent NET Occupancy Day 1 [2]: 110.3±7.4%
Apparent NET Occupancy Day 3 [2]: 92.0±10.8%
Apparent NET Occupancy Day 6 [3]: 62.9±5.0%
Apparent NET Occupancy Day 7 [3]: 2.6±11.6%
Apparent NET Occupancy Day 1 [4]: 120.3±6.2% and 98.4±4.7% and 119.1±8.3% and 121.2±4.5%
Apparent NET Occupancy Day 3 [4]: 96.2±10.2% and 124.3±4.9%
EC50 (human brain PET, single oral 4-20mg, fit ± standard error, read-out: plasma EC50 for NET occupancy (converted)): 3.77 nM
